Source: US9957271B2, “Substituted bicyclic aza-heterocycles and analogues as sirtuin modulators” (GlaxoSmithKline, LLC, priority 2012, dated 2018)
Read-outs that look alike come from different tables or passages of the source.

Biological target: T1, SIRT1 (Homo sapiens, UniProt Q96EB6)
T1 sequence (Q96EB6 1-747): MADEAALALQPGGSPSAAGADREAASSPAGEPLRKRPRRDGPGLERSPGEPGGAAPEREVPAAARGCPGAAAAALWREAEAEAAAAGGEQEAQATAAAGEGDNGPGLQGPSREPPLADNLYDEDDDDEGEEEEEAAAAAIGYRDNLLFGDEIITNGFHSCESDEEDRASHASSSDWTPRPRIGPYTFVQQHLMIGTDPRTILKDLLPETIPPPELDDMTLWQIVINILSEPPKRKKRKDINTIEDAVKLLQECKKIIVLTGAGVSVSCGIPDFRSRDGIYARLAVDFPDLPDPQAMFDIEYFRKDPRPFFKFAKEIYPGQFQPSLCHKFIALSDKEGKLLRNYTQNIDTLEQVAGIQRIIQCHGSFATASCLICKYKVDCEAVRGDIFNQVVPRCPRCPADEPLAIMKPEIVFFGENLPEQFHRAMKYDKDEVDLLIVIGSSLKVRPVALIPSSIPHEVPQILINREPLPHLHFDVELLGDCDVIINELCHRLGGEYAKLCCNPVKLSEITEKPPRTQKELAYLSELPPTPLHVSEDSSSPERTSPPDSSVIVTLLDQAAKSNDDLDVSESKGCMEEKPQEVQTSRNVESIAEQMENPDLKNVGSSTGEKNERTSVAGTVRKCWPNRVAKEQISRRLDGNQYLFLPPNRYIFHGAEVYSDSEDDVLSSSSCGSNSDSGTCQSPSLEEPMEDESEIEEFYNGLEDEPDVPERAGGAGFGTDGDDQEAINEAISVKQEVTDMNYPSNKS
Assay: TAMRA based mass spectrometry assay of SIRT1 activity
Type: biochemical
Conditions: for Emax: read-out: TAMRA % Fold Act
Excerpt: Mass spectrometry based assays were used to identify modulators of SIRT1 activity. The TAMRA based assay utilized a peptide having 20 amino acid residues as follows: Ac-EE-K(biotin)-[…](Ac)NleSTEG-K(5TMR)-EE-NH2 (SEQ ID NO: 1), wherein K(Ac) is an acetylated lysine residue and Nle is a norleucine. The peptide was labeled with the fluorophore 5TMR (excitation 540 nm/emission 580 nm) at the C-terminus. The sequence of the peptide substrate was based on p53 with several modifications. In addition, the methionine residue naturally present in the sequence was replaced with the norleucine because the methionine may be susceptible to oxidation during synthesis and purification. The Trp based assay utilized a peptide having an amino acid residues as follows: Ac-R-H-K-K(Ac)-W-NH2 (SEQ ID NO: 2).
The TAMRA based mass spectrometry assay was conducted as follows: 0.5 μM peptide substrate and 120 μM βNAD^+ was incubated with 10 nM SIRT1 for 25 minutes at 25° C. in a reaction buffer (50 mM Tris-acetate pH 8, 137 mM NaCl, 2.7 mM KCl, 1 mM MgCl2, 5 mM DTT, 0.05% BSA). The SIRT1 protein was obtained by cloning the SirT1 gene into a T7-promoter containing vector, which was then transformed and expressed in BL21(DE3) bacterial cells. Test compound was added at varying concentrations to this reaction mixture and the resulting reactions were monitored. After the 25 minute incubation with SIRT1, 10 μL of 10% formic acid was added to stop the reaction. The resulting reactions were sealed and frozen for later mass spec analysis. Determination of the amount of deacetylated substrate peptide formed (or, alternatively, the amount of O-acetyl-ADP-ribose (OAADPR) generated) by the sirtuin-mediated NAD-dependent deacetylation reaction allowed for the precise measurement of relative SIRT1 activity in the presence of varying concentrations of the test compound versus control reactions lacking the test compound.
A control for inhibition of sirtuin activity was conducted by adding 1 μL of 500 mM nicotinamide as a negative control at the start of the reaction (e.g., permits determination of maximum sirtuin inhibition). A control for activation of sirtuin activity was conducted using 10 nM of sirtuin protein, with 1 μL of DMSO in place of compound, to determine the amount of deacetylation of the substrate at a given time point within the linear range of the assay. This time point was the same as that used for test compounds and, within the linear range, the endpoint represents a change in velocity.
For the above assay, SIRT1 protein was expressed and purified as follows. The SirT1 gene was cloned into a T7-promoter containing vector and transformed into BL21(DE3). The protein was expressed by induction with 1 mM IPTG as an N-terminal His-tag fusion protein at 18° C. overnight and harvested at 30,000×g. Cells were lysed with lysozyme in lysis buffer (50 mM Tris-HCl, 2 mM Tris[2-carboxyethyl]phosphine (TCEP), 10 μM ZnCl2, 200 mM NaCl) and further treated with sonication for […] for complete lysis. The protein was purified over a Ni-NTA column (Amersham) and fractions containing pure protein were pooled, concentrated and run over a sizing column (Sephadex S200 26/60 global). The peak containing soluble protein was collected and run on an Ion-exchange column (MonoQ). Gradient elution (200 mM-500 mM NaCl) yielded pure protein. This protein was concentrated and dialyzed against dialysis buffer (20 mM Tris-HCl, 2 mM TCEP) overnight. The protein was aliquoted and frozen at −80° C. until further use.

[1] = concentration of test compound giving 150% activation of SIRT1, TAMRA peptide substrate
[2] = percent maximum fold activation of SIRT1, TAMRA peptide substrate

| SMILES | TAMRA EC1.5 (μM) [1] | Emax [2] | TAMRA EC1.5 (μM) (TAMRA assay, concentration giving 150% activation of SIRT1) | Emax (TAMRA assay, percent maximum fold activation) |
| --- | --- | --- | --- | --- |
| O=C(Nc1ccncc1)c1cnc2ccc(-c3ccccc3F)nn12 [Compound 136] | B (EC1.5 1-25 μM) | < 350% |  |  |
| O=C(Nc1ccccn1)c1cnc2ccc(-c3ccccc3F)nn12 [Compound 137] | B (EC1.5 1-25 μM) | < 350% |  |  |
| O=C(Nc1cccnc1)c1cnc2ccc(-c3ccccc3F)nn12 [Compound 138] | B (EC1.5 1-25 μM) | < 350% |  |  |
| O=C(Nc1cnccn1)c1cnc2ccc(-c3ccccc3F)nn12 [Compound 139] | B (EC1.5 1-25 μM) | < 350% |  |  |
| O=C(Nc1ccccn1)c1cnc2ccc(-c3cccc(Cl)c3F)nn12 [Compound 142] | B (EC1.5 1-25 μM) | < 350% |  |  |
| O=C(Nc1cnc2ccc(-c3ccccc3C(F)(F)F)nn12)c1cccc(N2CCC2)n1 [Compound 144] | A (EC1.5<1 μM) | ≥ 350% |  |  |
| O=C(Nc1cnc2ccc(-c3ccccc3C(F)(F)F)nn12)c1cccc(CN2CCCC2)n1 [Compound 145] | A (EC1.5<1 μM) | ≥ 350% |  |  |
| O=C(Nc1cnc2ccc(-c3ccccc3C(F)(F)F)nn12)c1ccc(CN2CCOCC2)nc1 [Compound 147] | B (EC1.5 1-25 μM) | < 350% |  |  |
| O=C(Nc1cnc2ccc(-c3ccccc3C(F)(F)F)nn12)c1ccnc(CN2CCOCC2)c1 [Compound 148] | C (EC1.5>25 μM) | < 350% |  |  |
| O=C(Nc1ncc(N2CCOCC2)s1)c1cnc2ccc(-c3ccccc3C(F)(F)F)nn12 [Compound 151] | A (EC1.5<1 μM) | ≥ 350% |  |  |
| Cn1cc(NC(=O)c2cnc3ccc(-c4ccccc4C(F)(F)F)nn23)cn1 [Compound 153] | B (EC1.5 1-25 μM) | ≥ 350% |  |  |
| COCCn1cc(NC(=O)c2cnc3ccc(-c4ccccc4C(F)(F)F)nn23)cn1 [Compound 154] | B (EC1.5 1-25 μM) | ≥ 350% |  |  |
| COCCn1cc(NC(=O)c2cnc3ccc(-c4ccccc4C(F)(F)F)nn23)ccc1=O [Compound 156] | B (EC1.5 1-25 μM) | < 350% |  |  |
| O=C(Nc1cnccn1)c1cnc2ccc(-c3cccc(Cl)c3F)nn12 [Compound 157] | B (EC1.5 1-25 μM) | < 350% |  |  |
| O=C(Nc1cccc(N2CCOCC2)n1)c1cnc2ccc(-c3cccc(Cl)c3F)nn12 [Compound 158] | A (EC1.5<1 μM) | ≥ 350% |  |  |
| O=C(Nc1cccc(CN2CCOCC2)n1)c1cnc2ccc(-c3c(F)cccc3Cl)nn12 [Compound 160] | B (EC1.5 1-25 μM) | ≥ 350% |  |  |
| O=C(Nc1ccccn1)c1cnc2ccc(-c3c(F)cccc3Cl)nn12 [Compound 162] | B (EC1.5 1-25 μM) | < 350% |  |  |
| O=C(Nc1cccnc1)c1cnc2ccc(-c3c(F)cccc3Cl)nn12 [Compound 163] | C (EC1.5>25 μM) | < 350% |  |  |
| O=C(Nc1ccnc(N2CCC2)c1)c1cnc2ccc(-c3c(F)cccc3Cl)nn12 [Compound 165] | B (EC1.5 1-25 μM) | ≥ 350% |  |  |
| O=C(Nc1ccncc1)c1cnc2ccc(-c3c(F)cccc3F)nn12 [Compound 166] | C (EC1.5>25 μM) | < 350% |  |  |

| SMILES | TAMRA EC1.5 (μM) [1] | Emax [2] | TAMRA EC1.5 (μM) (TAMRA assay, concentration giving 150% activation of SIRT1) | Emax (TAMRA assay, percent maximum fold activation) |
| --- | --- | --- | --- | --- |
| O=C(Nc1cccc(N2CCOCC2)n1)c1cnc2ccc(-c3c(F)cccc3F)nn12 [Compound 168] | A (EC1.5<1 μM) | ≥ 350% |  |  |
| O=C(Nc1cccnc1)c1cnc2ccc(-c3c(F)cccc3F)nn12 [Compound 169] | C (EC1.5>25 μM) | < 350% |  |  |
| O=C(Nc1cnccn1)c1cnc2ccc(-c3c(F)cccc3F)nn12 [Compound 171] | C (EC1.5>25 μM) | < 350% |  |  |
| COc1cc(C)nc(NC(=O)c2cnc3ccc(-c4ccccc4C(F)(F)F)nn23)n1 [Compound 174] | A (EC1.5<1 μM) | ≥ 350% |  |  |
| O=C(Nc1cc(N2CCOCC2)ccn1)c1cnc2ccc(-c3ccccc3C(F)(F)F)nn12 [Compound 176] | A (EC1.5<1 μM) | < 350% |  |  |
| O=C(Nc1cccc(N2CCOCC2)n1)c1cnc2ccc(-c3cccc(F)c3Cl)nn12 [Compound 178] | A (EC1.5<1 μM) | < 350% |  |  |
| O=C(Nc1ccnc(N2CCC2)c1)c1cnc2ccc(-c3cccc(F)c3Cl)nn12 [Compound 179] | A (EC1.5<1 μM) | < 350% |  |  |
| O=C(Nc1cccc(CN2CCOCC2)n1)c1cnc2ccc(-c3cccc(F)c3Cl)nn12 [Compound 180] | B (EC1.5 1-25 μM) | ≥ 350% |  |  |
| O=C(Nc1ccncc1)c1cnc2ccc(-c3cccc(F)c3Cl)nn12 [Compound 181] | B (EC1.5 1-25 μM) | < 350% |  |  |
| O=C(Nc1cnccn1)c1cnc2ccc(-c3cccc(F)c3Cl)nn12 [Compound 184] | B (EC1.5 1-25 μM) | < 350% |  |  |
| CS(=O)(=O)c1ccccc1-c1ccc2ncc(C(=O)Nc3cccc(N4CCOCC4)n3)n2n1 [Compound 185] | B (EC1.5 1-25 μM) | < 350% |  |  |
| CS(=O)(=O)c1ccccc1-c1ccc2ncc(C(=O)Nc3ccncc3)n2n1 [Compound 187] | C (EC1.5>25 μM) | < 350% |  |  |
| CS(=O)(=O)c1ccccc1-c1ccc2ncc(C(=O)Nc3ccccn3)n2n1 [Compound 188] | C (EC1.5>25 μM) | < 350% |  |  |
| N#Cc1ccccc1-c1ccc2ncc(C(=O)Nc3cccc(N4CCOCC4)n3)n2n1 [Compound 191] | A (EC1.5<1 μM) | < 350% |  |  |
| Cc1cc(-c2ccccc2C(F)(F)F)nn2c(C(=O)Nc3ccncc3)cnc12 [Compound 193, 8-methyl-N-(pyridin-4-yl)-6-(2-(trifluoromethyl)phenyl)imidazo[1,2-b]pyridazine-3-carboxamide] | A (EC1.5<1 μM) | ≥ 350% |  |  |
| Cc1cc(-c2ccccc2C(F)(F)F)nn2c(C(=O)Nc3ccccn3)cnc12 [Compound 194] | A (EC1.5<1 μM) | ≥ 350% |  |  |
| Cc1cc(-c2ccccc2C(F)(F)F)nn2c(C(=O)Nc3cccc(CN4CCOCC4)n3)cnc12 [Compound 195] | A (EC1.5<1 μM) | ≥ 350% |  |  |
| COc1cc(NC(=O)c2cnc3ccc(-c4ccccc4C(F)(F)F)nn23)nc(OC)n1 [Compound 196] | A (EC1.5<1 μM) | ≥ 350% |  |  |
| O=C(Nc1ccc(N2CCOCC2)cn1)c1cnc2ccc(-c3ccccc3C(F)(F)F)nn12 [Compound 199] |  |  | A (EC1.5<1 μM) | ≥ 350% |
